In patent US20070027118A1 (priority 2005, published 2007) one finds Ki and inhibition data, which are given here for 14 compounds.

In test [1] the target is T1, 11β-hsd-1 enzyme (Homo sapiens, UniProt P28845). Description: biochemical. The method, boiled down:
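Enzyme (5 nM) pre-incubated ≥30 min at RT with inhibitor and 500 μM NADPH in triethanolamine buffer pH 8.0; reaction started with glucose-6-phosphate regenerating system and 200 nM 3H-cortisone, stopped with DMSO after 60 min. Product quantified by radio-HPLC; Kiapp from Morrison tight-binding equation.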

The target in test [2] is T1, 11β-hsd-1 enzyme. Description: biochemical. As to conditions: read-out: % Inh @ 0.1 mM; for inhibition at 100 µM: Table 2, inhibitor 0.1 mM as printed. The method, boiled down:
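Human 11β-HSD-1 (5 nM) pre-incubated ≥30 min with inhibitor and 500 μM NADPH in triethanolamine buffer pH 8.0 with NaCl, n-dodecyl β-D-maltoside and β-ME; reaction started with G6P/G6PDH/MgCl2 regenerating system and 200 nM 3H-cortisone, run 60 min, stopped with DMSO. 3H-cortisol and substrate separated by radio-HPLC; percent inhibition from peak areas.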

pKi: −log10 of the molar value.

T1 sequence (P28845 whole entry, species assumed): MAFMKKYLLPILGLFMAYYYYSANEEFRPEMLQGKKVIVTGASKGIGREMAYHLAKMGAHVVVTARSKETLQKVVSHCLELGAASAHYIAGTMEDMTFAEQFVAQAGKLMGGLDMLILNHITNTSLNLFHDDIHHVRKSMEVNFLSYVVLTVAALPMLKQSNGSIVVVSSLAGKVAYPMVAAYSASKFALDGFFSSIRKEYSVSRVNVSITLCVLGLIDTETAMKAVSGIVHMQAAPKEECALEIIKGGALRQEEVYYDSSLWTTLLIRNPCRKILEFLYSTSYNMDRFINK

What is called pKi is the negative decadic logarithm of the Ki, by convention in mol/L. Read a low pKi as a large Ki. `COc1ccc2oc(N3CCN(S(=O)(=O)Nc4ccc5ccccc5n4)CC3)nc2c1` [Example 166, 4-(5-methoxy-13-benzoxazol-2-yl)-N-quinolin-2-ylpiperazine-1-sulfonamide] gave a pKi at 11β-hsd-1 enzyme [1] of 7.80. At 11β-hsd-1 enzyme [2], the inhibition was found to be 100%.

The compound `O=C1CN(S(=O)(=O)Nc2ccc3ccccc3n2)CCN1C1CCCC1` [Example 169, 4-cyclopentyl-3-oxo-N-quinolin-2-ylpiperazine-1-sulfonamide] gave a pKi on 11β-hsd-1 enzyme [1] of 7.17. Also, the inhibition at 11β-hsd-1 enzyme [2] is 84.6%.

`O=C1CN(S(=O)(=O)Nc2ccc3ccccc3n2)CCN1Cc1ccc(F)cc1` [Example 173, 4-(4-fluorobenzyl)-3-oxo-N-quinolin-2-ylpiperazine-1-sulfonamide]: the pKi on 11β-hsd-1 enzyme [1] was 6.89. At 11β-hsd-1 enzyme [2], the inhibition at 100 µM turned out to be 75.5%.

At 11β-hsd-1 enzyme [1], `O=S(=O)(Nc1ccc2ccccc2n1)N1CCN(c2nc3ncccc3o2)CC1` [Example 176, 4-[13]oxazolo[45-b]pyridin-2-yl-N-quinolin-2-ylpiperazine-1-sulfonamide] gave a pKi of 6.96. The inhibition on 11β-hsd-1 enzyme [2] came to 70.4%.

On 11β-hsd-1 enzyme [1], `O=C(c1ccc(N2CCN(S(=O)(=O)Nc3ccc4ccccc4n3)CC2)nc1)N1CCOCC1` [Example 178, 4-[5-(morpholin-4-ylcarbonyl)pyridin-2-yl]-N-quinolin-2-ylpiperazine-1-sulfonamide] gave a pKi of 6.72. For the same compound, the inhibition at 11β-hsd-1 enzyme [2] is 73.3%.

On to `O=S(=O)(Nc1ccc2ccccc2n1)N1CCCN(c2nc3cc(Cl)ccc3o2)CC1` [Example 180, 4-(5-chloro-13-benzoxazol-2-yl)-N-quinolin-2-yl-14-diazepane-1-sulfonamide], for which the negative logarithm of the Ki (pKi) at 11β-hsd-1 enzyme [1] was 7.70. Besides, the inhibition on 11β-hsd-1 enzyme [2] came to 100%.

`CCc1cccc(NS(=O)(=O)N2CCc3conc3CC2)n1` [Example 181, N-(6-ethylpyridin-2-yl)-4578-tetrahydro-6H-isoxazolo[34-d]azepine-6-sulfonamide] showed a negative logarithm of the Ki (pKi) on 11β-hsd-1 enzyme [1] of 7.02. Moreover, the inhibition at 11β-hsd-1 enzyme [2] stood at 83.4%.

For `CCc1cccc(NS(=O)(=O)N2CCN(c3cccc(OC)n3)CC2)n1` [Example 183, N-(6-ethylpyridin-2-yl)-4-(6-methoxypyridin-2-yl)piperazine-1-sulfonamide], the negative logarithm of the Ki (pKi) at 11β-hsd-1 enzyme [1] is 7.94. Also, the inhibition at 100 µM at 11β-hsd-1 enzyme [2] is 100%.

In turn, `CCc1cccc(NS(=O)(=O)N2CCN(c3nc4ccc(Cl)cc4o3)CC2)n1` [Example 186, 4-(6-chloro-13-benzoxazol-2-yl)-N-(6-ethylpyridin-2-yl)piperazine-1-sulfonamide] had a negative logarithm of the Ki (pKi) on 11β-hsd-1 enzyme [1] of 8.05. Moreover, the inhibition at 100 µM on 11β-hsd-1 enzyme [2] was 100%.

As to `CCc1cccc(NS(=O)(=O)N2CCCN(c3ncccc3C#N)CC2)n1` [Example 187, 4-(3-cyanopyridin-2-yl)-N-(6-ethylpyridin-2-yl)-14-diazepane-1-sulfonamide], the pKi at 11β-hsd-1 enzyme [1] was 6.80. Besides, the inhibition at 11β-hsd-1 enzyme [2] was found to be 68.8%.

Consider `CCc1cccc(NS(=O)(=O)N2CCc3c(Cl)cccc3C2)n1` [Example 190, 5-chloro-N-(6-ethylpyridin-2-yl)-34-dihydroisoquinoline-2(1H)-sulfonamide], for which the pKi on 11β-hsd-1 enzyme [1] was 9.00. For the same compound, on 11β-hsd-1 enzyme [2], the inhibition is 100%.

As for `CCc1cccc(NS(=O)(=O)N2CCN(c3ncccn3)CC2)n1` [Example 191, N-(6-ethylpyridin-2-yl)-4-pyrimidin-2-ylpiperazine-1-sulfonamide], the pKi at 11β-hsd-1 enzyme [1] was 6.92. In addition, the inhibition at 11β-hsd-1 enzyme [2] was found to be 90.5%.

As to `CCc1cccc(NS(=O)(=O)N2CCCCCCC2)n1` [Example 193, N-(6-ethylpyridin-2-yl)azocane-1-sulfonamide], at 11β-hsd-1 enzyme [1], the negative logarithm of the Ki (pKi) was 8.11. For the same compound, at 11β-hsd-1 enzyme [2], the inhibition amounted to 92.5%.

`CCc1cccc(NS(=O)(=O)N2CCN(c3ccccn3)CC2)n1` [Example 194, N-(6-ethylpyridin-2-yl)-4-pyridin-2-ylpiperazine-1-sulfonamide] gave a negative-log Ki (pKi) on 11β-hsd-1 enzyme [1] of 7.43. The inhibition at 100 µM at 11β-hsd-1 enzyme [2] was determined as 81.4%.
